Measurements: patent US20170354721A1, “WOUND HEALING COMPOUND” (priority 2016, published 2017)

Legend:
[1] = tested on: all ranges of bacterial infection; conditions: in water or saline; cited from earlier work
[2] = tested on: ancef sensitive organisms; conditions: in the lab; cited from earlier work
[3] = tested on: ancef sensitive organisms; experiment: Minimum bactericidal concentration (MBC) of ancef; assay type: cell-based
Experimental: In an operating room setting, the vancomycin is reconstituted at room temperature (˜25° C.). […] To insure the Minimal Inhibitory Concentration (MIC) for vancomycin is exceeded, the total amount of vancomycin added to the mixture ranges from 1 mg to 5000 mg with the preferred amount being 500 mg for a 10 ml syringe, 750 mg for a 15 ml syringe, and 1000 for a 20 ml syringe. People having skill in the art will recognize that the concentrations of vancomycin can be adjusted for different sized syringes. The reconstituted vancomycin is added to the thrombin-flowable agent mixture to form a wound healing compound (“compound”). The compound is applied directly to the target wound. The Minimum Inhibitory Concentration (MIC) is defined as the lowest concentration of antimicrobial that will inhibit the visible growth of a microorganism after an overnight incubation. Related to this is the minimum bactericidal concentration (MBC), which is the lowest concentration of antimicrobial agent that will prevent the growth of an organism after subculture on to antibiotic free media.
Depending on the infection agent, other antibiotics may be added to the mixture to form the wound healing compound. In the lab, ancef sensitive organisms are inhibited at an MIC ranging from 1-4 mcg/ml. However, ancef is bactericidal a four times the MIC. […]

CN[C@H](CC(C)C)C(=O)N[C@H]1C(=O)N[C@@H](CC(N)=O)C(=O)N[C@H]2C(=O)N[C@H]3C(=O)N[C@H](C(=O)N[C@H](C(=O)O)c4cc(O)cc(O)c4-c4cc3ccc4O)[C@H](O)c3ccc(c(Cl)c3)Oc3cc2cc(c3O[C@@H]2O[C@H](CO)[C@@H](O)[C@H](O)[C@H]2O[C@H]2C[C@](C)(N)[C@H](O)[C@H](C)O2)Oc2ccc(cc2Cl)[C@H]1O [Vancomycin, vancomycin]
concentration at which most effective if all ranges of bacterial infection are to be inhibited [1]: ≥ 16 µg/mL

Cc1nnc(SCC2=C(C(=O)O)N3C(=O)[C@@H](NC(=O)Cn4cnnn4)[C@H]3SC2)s1 [ancef]
MIC [2]: 1 to 4 mg/L
preferred concentration (the MBC), bactericidal at four times the MIC [3]: at least 16 mcg/ml
